Test results from patent publication US9718790B2, “Triazine derivative and pharmaceutical composition having an analgesic activity comprising the same” (SHIONOGI & CO., LTD., priority 2010, dated 2017).

Biological target: human P2X3 receptor (Homo sapiens (Human), UniProt P56373)
Experiment: Evaluation of human P2X3 receptor inhibitory activity (Fluo-3 calcium fluorescence, FDSS 3000, ATP stimulation);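 note: stimulus was 50 nM ATP with fluorescence followed for 3 min, and the response per well was peak post-ATP fluorescence divided by the reading at measurement start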
Assay type: cell-based
Settings: C6BU-1 cells stably expressing human P2X3 receptor

human P2X3 receptor, sequence (P56373 whole entry): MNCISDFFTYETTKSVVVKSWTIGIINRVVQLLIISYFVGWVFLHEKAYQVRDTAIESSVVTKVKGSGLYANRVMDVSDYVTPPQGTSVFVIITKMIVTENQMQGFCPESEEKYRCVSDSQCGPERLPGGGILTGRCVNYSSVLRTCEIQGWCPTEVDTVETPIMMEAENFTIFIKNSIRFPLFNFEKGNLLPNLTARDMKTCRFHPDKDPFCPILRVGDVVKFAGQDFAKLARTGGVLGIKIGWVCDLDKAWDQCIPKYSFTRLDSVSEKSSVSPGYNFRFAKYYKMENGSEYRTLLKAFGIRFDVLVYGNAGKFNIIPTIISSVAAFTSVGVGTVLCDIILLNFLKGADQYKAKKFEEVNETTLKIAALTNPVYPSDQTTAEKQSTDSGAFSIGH

SMILES	IC50 [µM]
COc1cc(/N=c2\[nH]c(=O)n([C@@H](C)[C@@H](C)C(=O)O)c(=O)n2Cc2ccc(Cl)cc2)ccc1CC(C)C [Compound I-1366]	0.02
Cc1ccc(Cn2c(=O)n(CCC(=O)O)c(=O)[nH]/c2=N\c2ccc(OC3CCC3)cc2)cc1 [Compound I-1285]	0.051
COC(=O)[C@@H](C)Cn1c(=O)[nH]/c(=N\c2ccc(N3CCCCCC3)cc2)n(Cc2ccc(C)cc2)c1=O [Compound I-1234]	0.23
CCn1c(=O)[nH]/c(=N\c2ccc(Oc3cc(C(=O)O)ncn3)cc2)n(Cc2ccc(Cl)cc2)c1=O [Compound I-2209]	0.008
CCn1c(=O)[nH]/c(=N\c2ccc(Oc3nccc(OC)n3)cc2)n(Cc2ccc(Cl)cc2)c1=O [Compound I-2096]	0.035
CCc1ccc(/N=c2\[nH]c(=O)n(C[C@H](C)C(=O)OC)c(=O)n2Cc2ccc(Cl)cc2)cc1C [Compound I-0815]	0.189
O=c1[nH]/c(=N\c2ccc3nc(C4CC4)sc3c2)n(Cc2ccc(Cl)cc2)c(=O)n1CCOC1CCCCO1 (stereo not shown) [Compound I-2024]	0.005
Cc1[nH]c2ccc(/N=c3\[nH]c(=O)n(C[C@H](O)CO)c(=O)n3Cc3ccc(Cl)cc3)cc2c1C [Compound I-2043]	0.009
COC(=O)[C@@H](C)Cn1c(=O)[nH]/c(=N\c2ccc3[nH]c(C)cc3c2)n(Cc2ccc(Cl)cc2)c1=O [Compound I-0692]	0.029
CCCOc1ccc(/N=c2\[nH]c(=O)n(C[C@H](C)C(=O)OC)c(=O)n2Cc2ccc(Cl)cc2)cc1C [Compound I-0707]	0.021
COCc1cc(/N=c2\[nH]c(=O)n(CC(C)(C)C(=O)O)c(=O)n2Cc2ccc(Cl)cc2)ccc1OC(C)C [Compound I-1430]	0.709
CCCOc1ccc(/N=c2\[nH]c(=O)n(C[C@H](C)C(=O)OC)c(=O)n2Cc2ccc(Cl)cc2)cc1Cl [Compound I-0743]	0.013
COC(=O)[C@@H](C)Cn1c(=O)[nH]/c(=N\c2ccc(OC3CCCCC3)cc2)n(Cc2ccc(C)cc2)c1=O [Compound I-1219]	0.029
C[C@H](C(=O)O)[C@@H](C)n1c(=O)[nH]/c(=N\c2cccc(C(F)(F)F)c2)n(Cc2ccc(Cl)cc2)c1=O [Compound I-1345]	0.069
COC(=O)[C@@H](C)[C@@H](C)n1c(=O)[nH]/c(=N\c2ccc(OC(C)C)c(F)c2)n(Cc2ccc(Cl)cc2)c1=O [Compound I-1315]	0.04
CC(C)Oc1ccc(/N=c2\[nH]c(=O)n(CCC(=O)NC#N)c(=O)n2Cc2ccc(Cl)cc2)cc1F [Compound I-0758, 1-(4-chlorobenzyl)-6-(3-fluoro-4-isopropoxyphenylimino)-3-[2-(cyanocarbamoyl)ethyl]-1,3,5-triazinane-2,4-dion]	0.019
O=C(O)CCn1c(=O)[nH]/c(=N\c2ccc(OC3CCC3)cc2)n(Cc2ccc(Cl)cc2)c1=O [Compound I-1286]	0.034
CCn1c(=O)[nH]/c(=N\c2ccc(Oc3cccc(C(N)=O)n3)cc2)n(Cc2ccc(Cl)cc2)c1=O [Compound I-2145]	0.008
O=C(O)CCn1c(=O)[nH]/c(=N\c2ccc(Oc3ccnc(O)c3)cc2)n(Cc2ccc(Cl)cc2)c1=O [Compound I-1441]	0.009
COC(=O)[C@@H](C)Cn1c(=O)[nH]/c(=N\c2ccc(OC(C)C)c(F)c2)n(Cc2ccc(F)cc2)c1=O [Compound I-0617]	0.067
Cc1ccc(Oc2ccc(/N=c3\[nH]c(=O)n(CCC(=O)O)c(=O)n3Cc3ccc(Cl)cc3)cc2)c(C)n1 [Compound I-1413]	0.072
CCOC(=O)CCn1c(=O)[nH]/c(=N\c2ccc(OC3CCC3)c(Cl)c2)n(Cc2ccc(C)cc2)c1=O [Compound I-1328]	0.012
CCn1c(=O)[nH]/c(=N\c2ccc(Oc3ccc(-c4ncn[nH]4)cc3)cc2)n(Cc2ccc(Cl)cc2)c1=O [Compound I-1973]	0.002
CCn1c(=O)[nH]/c(=N\c2ccc(Oc3ccc([N+](=O)[O-])nc3)cc2)n(Cc2ccc(Cl)cc2)c1=O [Compound I-2172]	0.001
C[C@@H](Oc1ccc(/N=c2\[nH]c(=O)n(CCC(=O)NCC(F)(F)F)c(=O)n2Cc2ccc(Cl)cc2)cc1)C(F)(F)F [Compound I-1958]	0.016

Same assay, conditions: C6BU-1 cells stably expressing human P2X3 receptor, Fluo-3 fluorescence, FDSS 3000

SMILES	IC50 [µM]
CNC(=O)Cn1c(=O)[nH]/c(=N\c2ccc3nc(C)sc3c2)n(Cc2ccc(Cl)cc2)c1=O [Compound I-1660]	0.005
Cc1ccc(Cn2c(=O)n(C[C@H](C)C(=O)O)c(=O)[nH]/c2=N\c2ccc(Oc3ccccc3)cc2)cc1 [Compound I-0992]	0.024
Cc1cc(Oc2ccc(/N=c3\[nH]c(=O)n(CCCO)c(=O)n3Cc3ccc(Cl)cc3)cc2)no1 [Compound I-1835]	0.008
CCc1nc2ccc(/N=c3\[nH]c(=O)n(CC(C)(C)C(=O)O)c(=O)n3Cc3ccc(Cl)cc3)cc2s1 [Compound I-1578]	0.006
Cc1ccc(Cn2c(=O)n(C[C@H](C)C(=O)O)c(=O)[nH]/c2=N\c2ccc(OC3CCOCC3)nc2)cc1 [Compound I-1120]	0.534
CCOC(=O)CCn1c(=O)[nH]/c(=N\c2ccc(OC(CC)CC)cc2)n(Cc2ccc(C)cc2)c1=O [Compound I-1054]	0.018
Cc1ccc(Cn2c(=O)n(CCC(=O)O)c(=O)[nH]/c2=N\c2ccc(OC3CC3)c(Cl)c2)cc1 [Compound I-1608]	0.1
COC(=O)Cn1c(=O)[nH]/c(=N\c2ccc(Oc3ccnc(C)c3)cc2)n(Cc2ccc(Cl)cc2)c1=O [Compound I-1754]	0.005
CC[C@@H](C)Oc1ccc(/N=c2\[nH]c(=O)n(CCCO)c(=O)n2Cc2ccc(Cl)cc2)cc1Cl [Compound I-1623]	0.007
CNC(=O)Cn1c(=O)[nH]/c(=N\c2ccc(Oc3ccc(O)nc3)cc2)n(Cc2ccc(Cl)cc2)c1=O [Compound I-1901]	0.015
Cc1ccc(Cn2c(=O)n(C[C@H](C)C(=O)O)c(=O)[nH]/c2=N\c2ccc(OCC3CC3)c(Cl)c2)cc1 [Compound I-0971]	0.03
C[C@@H](C(=O)O)[C@H](C)n1c(=O)[nH]/c(=N\c2ccc3nc(C4CC4)sc3c2)n(Cc2ccc(Cl)cc2)c1=O [Compound I-1586]	0.013

Same assay, conditions: human P2X3 receptor, Test Example 1

SMILES	IC50 [µM]
COC(=O)[C@@H](C)Cn1c(=O)[nH]/c(=N\c2cnc(OC3CCC3)c(C)c2)n(Cc2ccc(Cl)cc2)c1=O [Compound I-1479]	0.02
CCn1c(=O)[nH]/c(=N\c2ccc(Oc3ncc(C(=O)O)s3)cc2)n(C[C@H]2CC[C@H](C)CC2)c1=O [Compound I-2347]	0.005
CCn1c(=O)[nH]/c(=N\c2ccc(Oc3cccc(/C=C/C(=O)O)c3)cc2)n(Cc2ccc(Cl)cc2)c1=O [Compound I-2231]	0.003
CCOC(=O)C1(Cn2c(=O)[nH]/c(=N\c3ccc4nc(CC)sc4c3)n(Cc3ccc(Cl)cc3)c2=O)CC1 [Compound I-1539]	0.004
CCn1c(=O)[nH]/c(=N\c2ccc(Oc3cncc(C(N)=O)c3)cc2)n(Cc2ccc(Cl)cn2)c1=O [Compound I-2236]	0.062
CCOCc1ccc(/N=c2\[nH]c(=O)n(C[C@H](C)C(=O)O)c(=O)n2Cc2ccc(C)cc2)cc1Cl [Compound I-1502]	0.107
Cn1c(=O)[nH]/c(=N\c2ccc(Oc3ncc(C(=O)O)s3)cc2)n(Cc2ccc(Cl)cc2)c1=O [Compound I-2409]	0.014
Cn1c(=O)[nH]/c(=N\c2ccc(Oc3nccc(C(N)=O)n3)cc2)n(Cc2ccc(Cl)cc2)c1=O [Compound I-2380]	0.029
CCOC(=O)C(F)(F)Cn1c(=O)[nH]/c(=N\c2ccc(OC(C)C)c(C)c2)n(Cc2ccc(C)cc2)c1=O [Compound I-0855]	0.01
CCn1c(=O)[nH]/c(=N\c2ccc(Oc3ccc(NCC(=O)O)nc3)cc2)n(Cc2ccc(Cl)cc2)c1=O [Compound I-2622]	0.005
Cc1nnc(Oc2ccc(/N=c3\[nH]c(=O)n(C)c(=O)n3Cc3ccc(Cl)cc3)cc2)o1 [Compound I-2355]	0.071
CCOC(=O)Cn1c(=O)[nH]/c(=N\c2ccc(Oc3cccnn3)cc2)n(Cc2ccc(Cl)cc2)c1=O [Compound I-2658]	0.005
NC(=O)c1cccc(Oc2ccc(/N=c3\[nH]c(=O)n(CCC(=O)O)c(=O)n3Cc3ccc(Cl)cc3)cc2)n1 [Compound I-2693]	0.012
CCn1c(=O)[nH]/c(=N\c2ccc(Oc3nc(C(=O)O)cs3)cc2)n(Cc2ccc(F)cc2)c1=O [Compound I-2568]	0.087
CCn1c(=O)[nH]/c(=N\c2ccc(Oc3cccc(C(=O)O)n3)c(F)c2)n(Cc2ccc(Cl)cc2)c1=O [Compound I-2498]	0.003
O=c1[nH]/c(=N\c2ccc(Oc3ccn[nH]3)cc2)n(Cc2ccc(Cl)cc2)c(=O)n1CC(CO)CO [Compound I-2454]	0.035
N#Cc1cccc(Oc2ccc(/N=c3\[nH]c(=O)n(CCC(=O)O)c(=O)n3Cc3ccc(Cl)cc3)cc2)n1 [Compound I-2667]	0.01
CCn1c(=O)[nH]/c(=N\c2ccc(Oc3ccc(C#N)nc3)cc2)n(Cc2ccc(Cl)cn2)c1=O [Compound I-2375]	0.022
Cc1cc(Oc2ccc(/N=c3\[nH]c(=O)n(CC(CO)CO)c(=O)n3Cc3ccc(Cl)cc3)cc2)no1 [Compound I-2353]	0.008
COC(=O)[C@H](C)n1c(=O)[nH]/c(=N\c2ccc(Oc3ccon3)cc2)n(Cc2ccc(Cl)cc2)c1=O [Compound I-2459]	0.007
Cc1ccc(Cn2c(=O)n(CC(F)(F)C(=O)O)c(=O)[nH]/c2=N\c2ccc(OC(C)C)c(C)c2)cc1 [Compound I-0857]	0.019
NC(=O)NC(=O)Cn1c(=O)[nH]/c(=N\c2ccc(Oc3ccon3)cc2)n(Cc2ccc(Cl)cc2)c1=O [Compound I-2694]	0.003
COC(=O)[C@@H](C)Cn1c(=O)[nH]/c(=N\c2ccc(C)c(C(F)(F)F)c2)n(Cc2ccc(Cl)cc2)c1=O [Compound I-0841]	0.15
Cc1nc2ccc(/N=c3\[nH]c(=O)n(CC4COC(C)(C)OC4)c(=O)n3Cc3ccc(Cl)cc3)cc2s1 [Compound I-1542]	0.004
NC(=O)Cn1c(=O)[nH]/c(=N\c2ccc(Oc3ncccn3)cc2)n(Cc2ccc(Cl)cc2)c1=O [Compound I-2686]	0.036
Cc1nnc(Oc2ccc(/N=c3\[nH]c(=O)n(CC(CO)CO)c(=O)n3Cc3ccc(Cl)cc3)cc2)s1 [Compound I-2517]	0.167
CCn1c(=O)[nH]/c(=N\c2ccc(Oc3ncc(C(N)=O)s3)cc2)n(Cc2ccc(Cl)cc2)c1=O [Compound I-2609]	0.002
